Data on eight molecules can be found in patent US10450573B2, “Compositions and methods for regulation of gene expression with, and detection of, folinic acid and folates” (The Board of Trustees of the Leland Stanford Junior …, priority 2014, dated 2019).

The conditions of data set [1]: cited from earlier work; for concentration that can accumulate in human blood plasma: intravenous infusion.
A short description of data set [2]: Surface plasmon resonance aptamer binding assay, (6S)-folinic acid. The note with it: SPR, 25° C., selection buffer pH 7.4, 5 mM MgCl2; for ka, (6S)-Folinic Acid / kd, (6S)-Folinic Acid: 1:1 binding model. As for the experimental part: (§1) Surface plasmon resonance characterization of aptamer binding properties. Nucleic acid aptamer preparation. RNA aptamers were prepared by PCR amplification of DNA template sequences (Table 4, Integrated DNA Technologies, Coralville, Iowa) using forward and reverse primers Biacore-fwd and Biacore-rev, respectively, followed by transcription of the PCR product using the MEGAshortscript T7 transcription kit (Life Technologies) and purification of the transcription product using the RNA Clean & Concentrator kit (Zymo Research, Irvine, Calif.), according to the manufacturers' instructions. Aptamers were resuspended in selection buffer, denatured at 65° C. for 5 min, and cooled to room temperature directly before use.
(§2) Sensor chip surface generation. Experiments were performed on a Biacore X100 instrument (GE Healthcare) at 25° C. A CM5 sensor chip (GE Healthcare) was equilibrated with HBS-N buffer. The DNA linker strand (5′-AmMC6-[…]) (Integrated DNA Technologies) (SEQ ID NO:133), with an amino modified 6-carbon linker on the 5′ end, was immobilized to the chip surface. The carboxymethylated dextran surface of the CM5 chip was activated for 7 min at a flow rate of 10 μL/min using a 1:1 volume ratio of 0.4 M 1-ethyl-3-(3-dimethylaminopropyl) carbodiimide (GE Healthcare) and 0.1 M N-hydroxysuccinimide (GE Healthcare). A molar ratio of 1:30 of DNA strand to hexadecyltrimethylammonium bromide (Sigma-Aldrich, St. Louis, Mo.) was diluted in 10 mM HEPES buffer (Sigma-Aldrich) to a final concentration of 20 μM and 0.6 mM, respectively, and injected over the activated surface for 10 min at a flow rate of 5 μL/min. Excess activated groups were blocked by an injection of 1 M ethanolamine (GE Healthcare), pH 8.5, for 7 min at a flow rate of 10 μL/min. The immobilization reaction was performed sequentially on both flow cells (FC1, FC2) and yielded approximately 4,000 RU of the DNA strand.
(§3) Aptamer binding assay. The Biacore X100 instrument was primed three times with running buffer prior to all binding assays. For each assay, three startup cycles were performed to stabilize the sensorgram baseline. For each startup cycle, the aptamer (˜40-70 ng/μL, ˜3 μM) was captured onto the sample flow cell (FC2) for 40 s at a flow rate of 5 μL/min. 25 mM NaOH (GE Healthcare) was injected for 30 s at a flow rate of 30 μL/min over both flow cells to regenerate the sensor surface. A dilution series of (6R)- or (6S)-folinic acid (Schircks Laboratories, Jona, Switzerland) was prepared in selection buffer and filtered through a 0.2 μm membrane (Pall Corporation, Port Washington, N.Y.). For each concentration sample, the aptamer was captured onto the sample flow cell (FC2) for 40 s at a flow rate of 5 μL/min, the folinic acid solution was injected over both flow cells at a flow rate of 30 μL/min to monitor target association, and selection buffer was injected over both flow cells at a flow rate of 30 μL/min to monitor target dissociation. Association and dissociation phase lengths used were chosen based on time needed to reach equilibrium. Aptamer and folinic acid were removed from the sensor surface by injecting 25 mM NaOH for 30 s at a flow rate of 30 μL/min over both flow cells.
(§4) Data processing and analysis were performed using Biacore X100 Evaluation Software version 2.0 (GE Healthcare). A double-referencing method was performed to process all datasets. Data from the sample flow cell (FC2) were referenced first by subtracting data from the reference flow cell (FC1) to correct for bulk refractive index changes, nonspecific binding, injection noise, matrix effects, and baseline drift. Reference-subtracted data (FC2−FC1) were double-referenced with a blank injection of running buffer to account for any systematic drift over the course of the injection. Double-referenced data were fit to a 1:1 binding model for kinetic analysis or steady-state affinity model for thermodynamic analysis. […]
On the technique in general: SPR reads the build-up and loss of mass on a sensor chip optically.

A short description of data set [3]: Surface plasmon resonance aptamer binding assay, (6R)-folinic acid. To be noted: for ka, (6R)-Folinic Acid / kd, (6R)-Folinic Acid / Kd: SPR, 25° C., selection buffer pH 7.4, 5 mM MgCl2; for ka, (6R)-Folinic Acid / kd, (6R)-Folinic Acid: 1:1 binding model; for Selectivity: between (6R)- and (6S)-folinic acid diastereomers. How it is done: as §1, §2, §3, §4
The nature of data set [4]: SPR binding to (6R,S)-5-methyl-5,6,7,8-tetrahydrofolic acid. To be noted: ligand is mixture of (6R) and (6S) diastereomers; for Kd: read-out: KD, (6R,S)-5-methyl-THF.
Data set [5] in a line: SPR binding to (6R,S)-5-formyl-5,6,7,8-tetrahydropteroic acid. The note with it: ligand is mixture of (6R) and (6S) diastereomers; for Kd: read-out: KD, (6R,S)-5-formyl-THPteroic Acid.

As to `Nc1nc(=O)c2c([nH]1)NC[C@H](CNc1ccc(C(=O)N[C@@H](CCC(=O)O)C(=O)O)cc1)N2C=O` [(6S)-folinic acid], in data set [1], the “concentration that can accumulate in human blood plasma” value is no more than 7.95 µM.

For orientation: Kd means the free concentration of one partner at which half of the binding sites on the other are occupied at equilibrium, for simple one-to-one binding. Turning to “tFA8-4: truncated (6R)-FA specific RNA aptamer, SEQ ID NO: 18 (GCUUGGCGUUGCGUGGUACGUUAUAUUCCGGCCAAGC; unmodified RNA)”, in data set [2], the “ka, (6S)-Folinic Acid” value turned out to be 21100 M⁻¹ s⁻¹; the “kd, (6S)-Folinic Acid” value stood at 0.105 s⁻¹; the Kd came out at 4.98 µM. For the same molecule, in data set [3], the “ka, (6R)-Folinic Acid” value amounted to 269000 M⁻¹ s⁻¹; the “kd, (6R)-Folinic Acid” value was determined as 0.00515 s⁻¹; the Kd is 0.0192 µM; the Selectivity is recorded as 260. Besides, in data set [4], the “ka, (6R,S)-5-methyl-THF” value amounted to 33500 M⁻¹ s⁻¹; the “kd, (6R,S)-5-methyl-THF” value came out at 0.211 s⁻¹; the Kd is 6.29 µM. Moreover, in data set [5], the “ka, (6R,S)-5-formyl-THPteroic Acid” value was 135000 M⁻¹ s⁻¹; the “kd, (6R,S)-5-formyl-THPteroic Acid” value came to 0.00494 s⁻¹; the Kd is 0.0366 µM.

Take “tFA10-7: truncated (6S)-FA specific RNA aptamer, SEQ ID NO: 24 (ACGGCGAAGAGUCAAAGCAUCCCCUGCGAAAGCAGGGCCCGU; unmodified RNA)”: in data set [2], the “ka, (6S)-Folinic Acid” value was determined as 53600 M⁻¹ s⁻¹; the “kd, (6S)-Folinic Acid” value worked out at 0.00775 s⁻¹; the Kd came out at 0.144 µM. In data set [3], the equilibrium dissociation constant (Kd) stood at 74.4 µM and the Selectivity stood at 515. Besides, in data set [4], the Kd was determined as 81.8 µM. Further, in data set [5], the “ka, (6R,S)-5-formyl-THPteroic Acid” value was determined as 35200 M⁻¹ s⁻¹; the “kd, (6R,S)-5-formyl-THPteroic Acid” value was determined as 0.00697 s⁻¹; the Kd worked out at 0.198 µM.

As to “tFA8-16: truncated (6R)-FA specific RNA aptamer, SEQ ID NO: 22 (CUCCUUCCGGUGACCUGGACGUUAUUUCCGGCCGAAGGGAG; unmodified RNA)”, in data set [2], the “ka, (6S)-Folinic Acid” value amounted to 682 M⁻¹ s⁻¹; the “kd, (6S)-Folinic Acid” value is 0.85 s⁻¹; the Kd stood at 1250 µM. Further, in data set [3], the “ka, (6R)-Folinic Acid” value stood at 33000 M⁻¹ s⁻¹; the “kd, (6R)-Folinic Acid” value is 0.0602 s⁻¹; the Kd was 1.82 µM; the Selectivity is on record as 684.

As for `Nc1nc2c(c(=O)[nH]1)N(C=O)[C@H](CNc1ccc(C(=O)N[C@@H](CCC(=O)O)C(=O)O)cc1)CN2` [(6R)-folinic acid], in data set [1] (in vivo), the “plasma concentration compared to the (6S) diastereomer” value was no more than 18 fold and the “plasma half-life compared to the (6S) diastereomer” value is “up to 15 fold”. In data set [1], the “concentration that can accumulate in human blood plasma” value is “up to 77.6 μM”.

As for “tFA8-11: truncated (6R)-FA specific RNA aptamer, SEQ ID NO: 20 (UGCAGUGCUUGGUACGUUAUAUUCAGCUGCA; unmodified RNA)”, in data set [2], the “ka, (6S)-Folinic Acid” value is 6560 M⁻¹ s⁻¹; the “kd, (6S)-Folinic Acid” value came to 0.227 s⁻¹; binding was characterised by a dissociation constant (Kd) of 34.6 µM. Moreover, in data set [3], the “ka, (6R)-Folinic Acid” value stood at 116000 M⁻¹ s⁻¹; the “kd, (6R)-Folinic Acid” value is 0.00468 s⁻¹; the Kd was found to be 0.0405 µM; the Selectivity worked out at 855. Also, in data set [4], the “ka, (6R,S)-5-methyl-THF” value came to 14300 M⁻¹ s⁻¹; the “kd, (6R,S)-5-methyl-THF” value is 0.195 s⁻¹; the Kd turned out to be 13.6 µM. Also, in data set [5], the “ka, (6R,S)-5-formyl-THPteroic Acid” value stood at 750000 M⁻¹ s⁻¹; the “kd, (6R,S)-5-formyl-THPteroic Acid” value was 0.00568 s⁻¹; the Kd is 0.0757 µM.

In the case of “tFA6-8: truncated (6R)-FA specific RNA aptamer, SEQ ID NO: 21 (UUCCCGUCAGGUACGUUAUAUUCGGGGGA; unmodified RNA)”, in data set [2], the “ka, (6S)-Folinic Acid” value amounted to 2330 M⁻¹ s⁻¹; the “kd, (6S)-Folinic Acid” value worked out at 0.297 s⁻¹; binding was characterised by a dissociation constant (Kd) of 128 µM. For the same molecule, in data set [3], the “ka, (6R)-Folinic Acid” value amounted to 77900 M⁻¹ s⁻¹; the “kd, (6R)-Folinic Acid” value was 0.0176 s⁻¹; the Kd came to 0.225 µM; the Selectivity is given as 567.

B1: tFA8-18: truncated (6S)-FA specific RNA aptamer, SEQ ID NO: 23 (nucleic acid)
chain: CUCGUCAAUGCAUAUGUAACGUUAACGGCGCUACCUGUACAAUGCACGUUCCGAGCGCCCGGAGACGAG
modifications: unmodified RNA
B1: in data set [2], the “ka, (6S)-Folinic Acid” value is 36100 M⁻¹ s⁻¹; the “kd, (6S)-Folinic Acid” value stood at 0.00227 s⁻¹; the Kd was 0.0628 µM. Besides, in data set [3], the “ka, (6R)-Folinic Acid” value stood at 94 M⁻¹ s⁻¹; the “kd, (6R)-Folinic Acid” value was 0.00355 s⁻¹; the Kd was found to be 37.7 µM; the Selectivity amounted to 600. In addition, the Kd in data set [4] came to 447 µM. Besides, in data set [5], the “ka, (6R,S)-5-formyl-THPteroic Acid” value was 53200 M⁻¹ s⁻¹; the “kd, (6R,S)-5-formyl-THPteroic Acid” value came to 0.00633 s⁻¹; the Kd worked out at 0.119 µM.
